pIC50: −log10 of the molar value.
Assays:
[1] = test system: intestinal epithelial (CACO2) cells; test: Intracellular amino acids in intestinal epithelial cells; type: cell-based
Procedure: (§1) When the cells reached about 80% confluency, fresh glutamine was added to 2 mM. […] After 6.5 h of incubation, cultures were washed twice with phosphate buffered saline and extracted with 100 μL 1M perchloric acid. Extracts were neutralized with 30 μL of 5M potassium carbonate, centrifuged, and analyzed by HPLC for nucleotides, as described in Di Pierro et al. 1995, and for amino acids, as described in Lo et al. 1998. Results are shown in FIG. 5A (amino acids) and FIG. 5B (nucleotides).

cerebellar granule cells = test: Intracellular amino acids in primary cultures of cerebellar granule cells; type: cell-based
Procedure: (§2) After 5 h incubation, the cultures were washed twice with phosphate buffered saline, extracted with perchloric acid and analyzed for amino acids as described for FIG. 5A. To produce dose response curves for lowering of intracellular Glu and Asp (FIG. 6A-B), the procedure was repeated with 4 days (for cerebellar granule cells) and 12 days of incubation (for astrocytes). […] Results are shown in FIGS. 6A-B. Data are expressed as the ratio of Glu, Asp, or GABA to Ala (neurons and astrocytes) or Ser (astrocytes).

astrocytes = test: Intracellular amino acids in primary cultures of astrocytes; type: cell-based
Procedure: as §2, with “To” for “After 5 h incubation, the cultures were washed twice with phosphate buffered saline, extracted with perchloric acid and analyzed for amino acids as described for FIG. 5A. To”

microglia (BV-2) cells = test: Inhibition of microglial glutamate secretion; type: cell-based; details: Mus musculus
Procedure: As described in Wood, glutamate efflux from microglia is dependent on the presence of added external glutamine. […] Therefore, the concentration of glutamate in the culture medium can be used directly as a measure of glutamate production by these cells.
In assaying the invention compounds, microglia (BV-2) cells were cultured using standard methods, as described in Example 4. On the day of the experiment, cells were incubated in glutamine free medium for 1 to 1.5 hours, then glutamine and test compounds, dissolved in glutamine free medium, were added. Aliquots were removed at 2 h and 4 h for glutamate analysis.
Inhibition of Microglial Glutamate Secretion
BV-2 cells were cultured in 24 well plates using Dulbeccos minimal essential medium containing 10% heat inactivated fetal bovine serum, and grown to 70-80% confluency before use. On the day of the experiment, cells were placed in glutamine free medium for 1 to 1.5 hours. […] This solution was used to replace one half of the 0.5 mL culture medium volume at the end of the glutamine free incubation. Aliquots of 10 μL medium were removed at 2 h and 4 h and placed in 96 well microtiter plates with 90 μL DMF/water (1:9) for glutamate analysis.

[2] = test system: intestinal epithelial (CACO2) cells; test: Intracellular nucleotides in intestinal epithelial cells; type: cell-based; details: at 10 μM, FIG. 5B
Procedure: The remaining volume of the extracts was used for chromatographic determination of nucleic acids, as described in Di Pierro et al. This assay reflects the activity of a variety of glutamine amidotransferases, including CTP synthetase, which are mechanistically and functionally related to glutaminase.
CTP synthetase is a glutamine amidotransferase which synthesizes CTP by adding the amide nitrogen of glutamine to UTP.
as §1, with “Intestinal epithelial (CACO2) cells were grown in 12 well plates with Eagles minimal essential medium containing 2 mM glutamine, as recommended (American Tissue Culture Collection). When” for “When”

[3] = target: T1, glutaminase activity in rat brain membranes (Rattus norvegicus, UniProt P13264); test: Inhibition of glutaminase activity in rat brain membranes; type: biochemical; details: PO4 conc. = 8 mM; FIG. 2
T1 construct: from tissue; host or cells: rat brain membranes
T1 sequence (P13264 55-674): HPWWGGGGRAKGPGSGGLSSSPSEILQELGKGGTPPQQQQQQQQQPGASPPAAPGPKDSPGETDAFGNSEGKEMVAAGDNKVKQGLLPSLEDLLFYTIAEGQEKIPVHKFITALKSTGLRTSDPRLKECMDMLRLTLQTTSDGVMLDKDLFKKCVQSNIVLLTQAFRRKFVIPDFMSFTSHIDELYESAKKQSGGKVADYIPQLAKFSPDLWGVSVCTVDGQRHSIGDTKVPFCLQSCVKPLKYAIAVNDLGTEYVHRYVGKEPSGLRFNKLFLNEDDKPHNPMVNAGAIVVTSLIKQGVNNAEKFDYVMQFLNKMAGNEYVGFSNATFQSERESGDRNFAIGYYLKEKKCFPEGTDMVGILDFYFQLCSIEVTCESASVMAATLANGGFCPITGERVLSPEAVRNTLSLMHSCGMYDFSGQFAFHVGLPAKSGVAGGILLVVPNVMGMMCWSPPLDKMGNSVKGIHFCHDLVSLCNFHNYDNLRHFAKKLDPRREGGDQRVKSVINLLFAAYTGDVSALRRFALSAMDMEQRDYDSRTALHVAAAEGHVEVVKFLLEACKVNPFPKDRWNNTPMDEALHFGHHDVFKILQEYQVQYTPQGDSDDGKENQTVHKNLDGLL
Procedure: Aliquots of 10 μL were removed at 0, 85, and 195 min, added to 90 μL 1:3 DMF/H2O, and analyzed for glutamate by HPLC following derivatization with o-phthaldialdehyde and 2-mercaptoethanol (see Lo et al. 1998).

[4] = CACO2, 10 nM to 10 μM, 6.5 h, FIG. 5A

**Q.** `O=C(Cc1ccccc1)Nc1nnc(CCSCCc2nnc(NC(=O)Cc3ccccc3)s2)s1` [SNX-1770, bis-2′-[5-(phenylacetamido)-1,3,4-thiadiazol-2-yl]ethyl sulfide] was tested. Which “Effect on glutamate in cell extracts” value [1, 4] did it give?
**A.** The value was “dose dependent decrease”.

**Q.** And the “Effect on glycine or taurine in cell extracts” value [1, 4]?
**A.** The value was “no effect”.

**Q.** And the “Lowering of cellular glutamate” value ([1]; CACO2 cells, partial and specific)?
**A.** Its value is roughly 30%.

**Q.** And the “Effect on intracellular (non-glutamate) amino acids, including serine, glycine, arginine, alanine, taurine” value ([1]; at 10 μM, intestinal epithelial cells)?
**A.** The value was “no effect”.

**Q.** And the “Effect on intracellular (non-glutamate) amino acids, including serine, glycine, arginine, alanine, taurine” value (cerebellar granule cells; at 10 μM, cultured cerebellar neurons)?
**A.** The value was “no effect”.

**Q.** What about the “Lowering of cellular glutamate” value (cerebellar granule cells; granule cell neurons, partial and specific) of the same molecule?
**A.** Its value is roughly 30%.

**Q.** What about the “Effect on cellular GABA” value (cerebellar granule cells; granule cells, levels up to 10 μM, FIG. 6C) of the same molecule?
**A.** Its value is “no effect”.

**Q.** What about the pIC50 (cerebellar granule cells; primary cultures of cerebellar granule cells, read-out: IC50, lowering of cellular glutamate) of the same molecule?
**A.** Its pIC50 is 7.00 to 7.30.

**Q.** And the pIC50 (astrocytes; Astrocyte, primary cultures of astrocytes, read-out: IC50, lowering of cellular glutamate)?
**A.** Its pIC50 is 6.52 to 7.00.

**Q.** And the “Lowering of cellular glutamate” value (astrocytes; astrocytes, partial and specific)?
**A.** The value was roughly 30%.

**Q.** And the “Effect on intracellular (non-glutamate) amino acids, including serine, glycine, arginine, alanine, taurine” value (astrocytes; at 10 μM, astrocytes)?
**A.** Its value is “no effect”.

**Q.** And the inhibition at 10 µM (microglia (BV-2) cells; BV-2, at 10 μM, read-out: Inhibition of glutamate efflux by microglia)?
**A.** The inhibition at 10 µM was roughly 85%.

**Q.** What about the pIC50 (microglia (BV-2) cells; BV-2 cells, glutamine added, FIG. 4, read-out: IC50, inhibition of glutamate efflux by microglia) of the same molecule?
**A.** The pIC50 was 6.92 to 7.10.

**Q.** And the “Effect on intracellular nucleotides” value [2]?
**A.** Its value is “no effect”.

**Q.** What about the “Inhibition of glutaminase activity in rat brain membranes” value [3] of the same molecule?
**A.** Its value is “inhibition of glutaminase activity”.
